Measured values taken from PubChem BioAssay (NCI).
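Interpolation was linear, between the two tested concentrations surrounding the appropriate level; five concentrations were tested over 48 hours in 96-well plates. Abbreviation: GI50, concentration required for 50% inhibition of growth. TGI denotes the concentration required for complete inhibition of growth.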

Assays:
Test in all cases: NCI-60 cell line screen, 48 h
BT-549 breast = tested on: BT-549 breast
HCT-116 colon = tested on: HCT-116 colon
HOP-92 NSCLC = tested on: HOP-92 NSCLC
MOLT-4 leukemia = tested on: MOLT-4 leukemia
HOP-62 NSCLC = tested on: HOP-62 NSCLC
SF-268 CNS = tested on: SF-268 CNS
KM12 colon = tested on: KM12 colon
UO-31 renal = tested on: UO-31 renal
MALME-3M melanoma = tested on: MALME-3M melanoma
EKVX NSCLC = tested on: EKVX NSCLC

SMILES | TGI (BT-549 breast) [µM] | TGI (HCT-116 colon) [µM] | TGI (HOP-92 NSCLC) [µM] | TGI (MOLT-4 leukemia) [µM] | TGI (HOP-62 NSCLC) [µM] | TGI (SF-268 CNS) [µM] | TGI (KM12 colon) [µM] | TGI (UO-31 renal) [µM] | TGI (MALME-3M melanoma) [µM] | TGI (EKVX NSCLC) [µM] | GI50 (BT-549 breast) [µM] | GI50 (HCT-116 colon) [µM] | GI50 (HOP-92 NSCLC) [µM] | GI50 (MOLT-4 leukemia) [µM] | GI50 (HOP-62 NSCLC) [µM] | GI50 (SF-268 CNS) [µM] | GI50 (KM12 colon) [µM] | GI50 (UO-31 renal) [µM] | GI50 (MALME-3M melanoma) [µM] | GI50 (EKVX NSCLC) [µM]
C=C(C)C(=O)OC1CC2=CC(CC3(C)OC3C3OC(=O)C(=C)C13)OC2=O (stereo not given) | 25 | 17.1 | 7.35 | 15 | 41.9 | 47.3 | 32.1 | 26.2 | 13.3 | 30.9 |  |  |  |  |  |  |  |  |  | 
CN(c1ccc(NC(=O)Nc2ccc(OC(F)(F)F)cc2)cc1)c1ccnc(Nc2cccc(S(N)(=O)=O)c2)n1 | 8.3 | 5.7 | 6.95 | 4.16 | 8.1 | 6.74 | 3.99 | 11.9 | 8.34 | 12.4 | 4.31 | 1.73 | 2.36 | 1.11 | 3.71 | 2.34 | 0.0157 | 4.63 | 3.84 | 5.33
CC(=O)Nc1ccccc1C=C1c2ccccc2-c2ccccc21 | 98.3 | > 100 |  | > 100 | 42.9 | > 100 | > 100 | 38.5 | > 100 | > 100 |  |  |  |  |  |  |  |  |  | 
CCc1ccccc1N1CCN(C(=O)c2cc(OC)c(OC)c(OC)c2)CC1 | 5.87 | 16.5 | 12.3 | 41.4 | > 46.2 | > 100 | 2.64 | 63.4 | 55.9 | 20.9 |  |  |  |  |  |  |  |  |  | 
CC1=CCC(OC(=O)C(C)(C)CCC(O)(C(=O)OC2(C(C)C)CCC3(C)OC3C2)C(C)C)(C(C)C)CC1 (stereo not given) | 1.51 | 0.381 | 1.57 | 4.99 | 1.63 | 1.46 | 1.6 | 0.164 | 1.48 | 1.41 | 0.696 | 0.113 | 0.371 | 0.131 | 0.615 | 0.603 | 0.793 | 0.0634 | 0.733 | 0.654
N=c1c2c(-c3ccccc3)c(-c3ccccc3)n(Cc3ccccc3)c2ncn1CCCO | 21.2 | 4.84 |  | 11.4 | 7.05 | 20.8 | 14.3 | 16.5 | 3.84 | 21.3 | 7.81 | 0.406 |  | 0.743 | 1.03 | 0.894 | 1.01 | 2.24 | 1.55 | 4.4
CN(C)c1ccc(-c2cc(-c3ccc(Nc4nc(Nc5ccccc5)nc(Nc5ccc(Cl)cc5)n4)cc3)nc(N)n2)cc1 | 25 | 15.2 | 13.2 | 7.87 | 42.4 | 56.4 | 13 | > 100 | 49.2 | > 100 | 3.64 | 3.51 | 1.48 | 1.8 | 8.01 | 6.69 | 3.06 | 2.69 | 4.07 | 1.82
COC(=O)c1cc(-c2cc(OC)c(OC)c(OC)c2)[nH]c1N/N=C/c1c(Cl)cccc1Cl | 16.3 | > 33 | 7.48 | > 56.3 | 13 | 11.2 | 6.94 | 4.51 | 8.2 | 52.9 | 2.74 | 1.11 | 0.857 | 9.27 | 2.1 | 1.35 | 0.801 | 0.837 | 1.47 | 8.72
NC(=O)c1oc([N+](=O)[O-])c(-c2ccccc2)c1-c1ccccc1 | 40.6 | 36 | 42 | 96.6 | > 100 | > 100 | 40.9 | 52.2 | 16 | 48.4 |  |  |  |  |  |  |  |  |  | 
COc1cc2c3c(n(CCCNCC(OC)OC)c(=O)c2cc1OC)-c1cc2c(cc1C3=O)OCO2 | > 29.6 | 1.31 | 19.1 | 1.14 | 4.66 | > 55.1 | 34.6 | 22.5 | 47.6 | > 57.3 | 4.06 | 0.0172 | 1.45 | < 0.01 | 0.126 | 1.05 | 2.14 | 2.13 | 21 | 15.7
COc1ccc(-c2cc(-c3ccccc3)nc(N3CCN(CCNc4ccnc5cc(Cl)ccc45)CC3)n2)cc1 | 32.3 |  | 3.35 |  | 4.04 | 3.81 | 4.04 | 3.37 | 3.14 | 48.3 | 14.6 |  | 1.14 |  | 1.97 | 1.75 | 1.94 | 1.4 | 1.61 | 19
C[C@]12CC[C@@H]3c4ccc(O)cc4CC[C@H]3[C@@H]1CC[C@@H]2NS(=O)(=O)c1cccc(C(F)(F)F)c1 | 7.48 | 7.12 | 7.81 | 16.7 | 17.9 | 18.5 | 11.8 | 11.6 | 8.65 |  | 2.7 | 2.61 | 1.94 | 3.2 | 5.18 | 4.52 | 3.4 | 2.25 | 2.83 | 
CCN1CCN(CC(=O)Nc2nc3ccc(NCc4ccc(Cl)cc4)cc3s2)CC1 | 25 | 11.7 | 2.77 | 5.78 |  | 6.29 | > 100 | 3.19 | 3.2 | > 100 | 10.6 | 3.21 | 1.12 | 2.23 |  | 2.43 | 3.73 | 1.62 | 1.67 | 3.29
CCCCCCC#Cc1ccccc1C#CCO | 32.9 | 49.6 | 26.7 |  | 48.3 | 65.2 | 37.6 | 38.6 |  | 50.6 | 17 | 23.4 | 13.8 |  | 22.4 | 30.6 | 18.6 | 18.8 |  | 21.9
